Experimental data from US20110195929A1, “COMPOUNDS FOR THE TREATMENT OF FLAVIVIRAL INFECTIONS” (SUMMIT CORPORATION PLC, priority 2008, published 2011).

tested on: HCV; assay: Cell-based HCV infection NS3 protease FRET assay in DMSO-Huh7 cells; parameters: species or system hepatitis C virus (HCV); details: not given; note: test concentration or dose not given here

Compound	Ave % inhibition
[O-][N@@+]12C[C@H](O)[C@H](O)[C@@H]1[C@@H](O)[C@H](O)[C@@H]2CO [Compound 81, (1R,2R,3S,4R,6S,7R,7aR)-1,2,6,7-tetrahydroxy-3-(hydroxymethyl)octahydropyrrolizine 4-oxide]	++ (++: 20-39%)
O=C(O)[C@H]1C[C@H](O)CN1 [Compound 477, trans-4-Hydroxy-D-proline]	+ (+: ≦19%)
C[C@H]1C[C@@H](O)[C@@H]2[C@H](O)[C@H](O)[C@@H](CO)N21 [Compound 149, (1S,2R,3R,5S,7R,7aR)-3-(hydroxymethyl)-5-methylhexahydro-1H-pyrrolizine-1,2,7-triol]	++ (++: 20-39%)
CC1(C)O[C@H]2[C@@H](CN=[N+]=[N-])NC[C@H]2O1 [Compound 671, (3aS,4R,6aR)-4-(azidomethyl)-2,2-dimethyltetrahydro-3aH-[1,3]dioxolo[4,5-c]pyrrole]	++ (++: 20-39%)

same assay, conditions: DMSO-Huh7 cells infected with HCV at 0.05 ffu/cell; HCV NS3 protein levels by FRET, day 6 p.i.

Compound	Ave % inhibition
CC1(C)O[C@H]2[C@H](CN(Cc3ccc(-c4ccccc4)cc3)[C@H]2CNC(=O)C(F)(F)F)O1 [Compound 632, N-(((3aR,4S,6aS)-5-(biphenyl-4-ylmethyl)-2,2-dimethyltetrahydro-3aH-[1,3]dioxolo[4,5-c]pyrrol-4-yl)methyl)-2,2,2-trifluoroacetamide]	++ (++: 20-39%)
COC(=O)[C@H]1C[C@H](O)CN1C(=O)OC(C)(C)C [Compound 713, (2R,4S)-1-tert-butyl 2-methyl 4-hydroxypyrrolidine-1,2-dicarboxylate]	++ (++: 20-39%)
(3R,5S)-5-(acetamidomethyl)-1-butylpyrrolidin-3-yl acetate [Compound 546]	++ (++: 20-39%)
NC[C@H]1[C@@H](O)[C@@H](O)CN1Cc1ccc(-c2ccccc2)cc1 [Compound 686, (2S,3R,4S)-2-(aminomethyl)-1-(biphenyl-4-ylmethyl)pyrrolidine-3,4-diol]	+++ (+++: 40-59%)
(3R,5S)-5-(acetamidomethyl)-1-nonylpyrrolidin-3-yl acetate [Compound 547]	++++ (++++: 60-79%)
CCCCCCCCCN1C[C@@H](O)[C@@H](O)[C@@H]1[C@@H](O)CO [Compound 316, (2S,3S,4R)-2-((R)-1,2-dihydroxyethyl)-1-nonylpyrrolidine-3,4-diol]	+++ (+++: 40-59%)
CC1(C)O[C@H]2[C@H](CN(CCN3CCCCC3)[C@H]2CNC(=O)C(F)(F)F)O1 [Compound 677, N-(((3aR,4S,6aS)-2,2-dimethyl-5-(2-(piperidin-1-yl)ethyl)tetrahydro-3aH-[1,3]dioxolo[4,5-c]pyrrol-4-yl)methyl)-2,2,2-trifluoroacetamide]	++ (++: 20-39%)
CCCCCCCCCN1C[C@H](O)[C@H](O)[C@@H]1[C@@H](O)[C@H](O)CO [Compound 404, (1R,2R)-1-((2R,3R,4S)-3,4-dihydroxy-1-nonylpyrrolidin-2-yl)propane-1,2,3-triol]	+++ (+++: 40-59%)
OCCCCCCCCCN1[C@H](CO)[C@@H](O)[C@H](O)[C@H]1CO [Compound 557, (2R,3R,4R,5R)-2,5-bis(hydroxymethyl)-1-(9-hydroxynonyl)pyrrolidine-3,4-diol]	++ (++: 20-39%)
O=C(NC[C@H]1[C@@H](O)[C@@H](O)CN1CCN1CCOCC1)c1ccccc1 [Compound 633, N-(((2S,3R,4S)-3,4-dihydroxy-1-(2-morpholinoethyl)pyrrolidin-2-yl)methyl)benzamide]	+++ (+++: 40-59%)
COCCOCCN1C[C@H](O)[C@H](O)[C@@H]1CNC(=O)c1ccc(-c2ccccc2)cc1 [Compound 688, N-(((2S,3R,4S)-3,4-dihydroxy-1-(2-(2-methoxyethoxy)ethyl)pyrrolidin-2-yl)methyl)biphenyl-4-carboxamide]	+++ (+++: 40-59%)
O=C(NC[C@@H]1[C@@H](O)[C@@H](O)CN1Cc1ccccc1)c1ccc(-c2ccccc2)cc1 [Compound 673, N-(((2R,3R,4S)-1-benzyl-3,4-dihydroxypyrrolidin-2-yl)methyl)biphenyl-4-carboxamide]	++ (++: 20-39%)
CC(=O)NC[C@@H]1[C@@H](O)[C@@H](O)CN1CCCCCCCCCO [Compound 511, N-(((2R,3R,4S)-3,4-dihydroxy-1-(9-hydroxynonyl)pyrrolidin-2-yl)methyl)acetamide]	++ (++: 20-39%)
CCCCCCCCCN1C[C@@H](NC(C)=O)C[C@H]1CO [Compound 348, N-((3S,5S)-5-(hydroxymethyl)-1-nonylpyrrolidin-3-yl)acetamide]	++++ (++++: 60-79%)
O=C(NC[C@@H]1[C@@H](O)[C@@H](O)CN1Cc1ccc(-c2ccccc2)cc1)c1ccccc1 [Compound 649, N-(((2R,3R,4S)-1-(biphenyl-4-ylmethyl)-3,4-dihydroxypyrrolidin-2-yl)methyl)benzamide]	+++ (+++: 40-59%)
CCCC(=O)NC[C@@H]1[C@@H](O)[C@@H](O)CN1Cc1ccccc1 [Compound 669, N-(((2R,3R,4S)-1-benzyl-3,4-dihydroxypyrrolidin-2-yl)methyl)butyramide]	++ (++: 20-39%)
O[C@H]1[C@H](O)[C@H](O)CN(Cc2ccc(-c3ccccc3)cc2)C[C@H]1O [Compound 762, (3R,4R,5R,6R)-1-(biphenyl-4-ylmethyl)azepane-3,4,5,6-tetraol]	+++ (+++: 40-59%)
CC1(C)O[C@H]2[C@H](CN(Cc3ccccc3)[C@@H]2CN)O1 [Compound 483, ((3aR,4R,6aS)-5-benzyl-2,2-dimethyltetrahydro-3aH-[1,3]dioxolo[4,5-c]pyrrol-4-yl)methanamine]	++ (++: 20-39%)
C[C@@]1(C(=O)O)NC[C@H](O)[C@H]1O [Compound 504, (2R,3S,4S)-3,4-dihydroxy-2-methylpyrrolidine-2-carboxylic acid]	++ (++: 20-39%)

Compound	Ave % inhibition
O=C(O)[C@@]1(O)CNC[C@@H](O)[C@H]1O [Compound 87, (3R,4R,5R)-3,4,5-trihydroxypiperidine-3-carboxylic acid]	+++ (+++: 40-59%)
C[C@@H](N)CCC[C@@H]1N[C@@H](CO)[C@H](O)[C@H]1O [Compound 561, (2S,3S,4S,5S)-2-((R)-4-aminopentyl)-5-(hydroxymethyl)pyrrolidine-3,4-diol]	++++ (++++: 60-79%)
OC[C@H]1[C@H](O)[C@H](O)CN1Cc1ccc(-c2ccccc2)cc1 [Compound 623, (2S,3S,4R)-1-(biphenyl-4-ylmethyl)-2-(hydroxymethyl)pyrrolidine-3,4-diol]	++ (++: 20-39%)
[N-]=[N+]=N[C@@H]1C[C@H](CO)N(CCCO)C1 [Compound 717, ′3-((2R,4R)-4-azido-2-(hydroxymethyl)pyrrolidin-1-yl)propan-1-ol]	+++++ (+++++: ≧80%)
O[C@@H]1[C@H]([C@@H](O)CNCc2ccccc2)N(Cc2ccccc2)C[C@@H]1O [Compound 700, (2S,3R,4S)-1-benzyl-2-((S)-2-(benzylamino)-1-hydroxyethyl)pyrrolidine-3,4-diol]	++ (++: 20-39%)
OCCN1C[C@@H](O)[C@@H](O)[C@H]1[C@H](O)CO [Compound 145, (2R,3S,4R)-2-((S)-1,2-dihydroxyethyl)-1-(2-hydroxyethyl)pyrrolidine-3,4-diol]	+++ (+++: 40-59%)
CCCCCCCCCN1C[C@H](O)[C@@H](O)[C@H](NC(C)=O)C1 [Compound 774, N-((3R,4S,5S)-4,5-dihydroxy-1-nonylpiperidin-3-yl)acetamide]	+ (+: ≦19%)
O=C(NC[C@H]1[C@@H](O)[C@@H](O)CN1CCN1CCOCC1)c1ccc(-c2ccccc2)cc1 [Compound 702, N-(((2S,3R,4S)-3,4-dihydroxy-1-(2-morpholinoethyl)pyrrolidin-2-yl)methyl)biphenyl-4-carboxamide]	++++ (++++: 60-79%)
CCCCCCCCCN1C[C@H](O)[C@H](O)[C@@H]1CNC(C)=O [Compound 587, N-(((2S,3R,4S)-3,4-dihydroxy-1-nonylpyrrolidin-2-yl)methyl)acetamide]	+++ (+++: 40-59%)
OC[C@H]1N[C@H](CO)[C@@H](O)[C@H](O)[C@H]1O [Compound 15, (2R,3S,4R,5R,6R)-2,6-bis(hydroxymethyl)piperidine-3,4,5-triol]	++ (++: 20-39%)
O=C(O)CN1C[C@H](O)[C@H](O)[C@@H]1[C@@H](O)[C@H](O)[C@H](O)CO [Compound 530, 2-((2R,3R,4S)-3,4-dihydroxy-2-((1R,2S,3R)-1,2,3,4-tetrahydroxybutyl)pyrrolidin-1-yl)acetic acid]	++ (++: 20-39%)
CCCCCCCCCN1C[C@H](O)C(NC(C)=O)[C@@H](O)C1 [Compound 777, N-((3S,5S)-3,5-dihydroxy-1-nonylpiperidin-4-yl)acetamide]	+++ (+++: 40-59%)
CC[C@@H]1NC[C@@H](O)[C@H](O)[C@H]1O [Compound 72, (2S,3S,4S,5R)-2-ethylpiperidine-3,4,5-triol]	++ (++: 20-39%)
O[C@@H]1[C@@H]2[C@@H](O)CCCN2C[C@@H]1O [Compound 153, (1R,2S,8S,8aS)-octahydroindolizine-1,2,8-triol]	++ (++: 20-39%)
OC[C@H]1[C@H](O)[C@@H](O)CN1Cc1ccccc1 [Compound 500, (2S,3S,4S)-1-benzyl-2-(hydroxymethyl)pyrrolidine-3,4-diol]	++ (++: 20-39%)
O=C(NC[C@@H]1NC[C@H](O)[C@@H]1O)c1ccc(-c2ccccc2)cc1 [Compound 670, N-(((2S,3R,4S)-3,4-dihydroxypyrrolidin-2-yl)methyl)biphenyl-4-carboxamide]	+++++ (+++++: ≧80%)
CCCCCCCCCN1C[C@@H](O)C(NC(C)=O)[C@H](O)C1 [Compound 783, N-((3R,5R)-3,5-dihydroxy-1-nonylpiperidin-4-yl)acetamide]	+++ (+++: 40-59%)
CC1(C)O[C@H]2[C@H](CN(CCN3CCOCC3)[C@H]2CNC(=O)C(F)(F)F)O1 [Compound 675, N-(((3aR,4S,6aS)-2,2-dimethyl-5-(2-morpholinoethyl)tetrahydro-3aH-[1,3]dioxolo[4,5-c]pyrrol-4-yl)methyl)-2,2,2-trifluoroacetamid]	++ (++: 20-39%)
